Experimental findings from patent publication US4609496A, “Steroid esters of N-(2-halogenoethyl)-N-nitroso-carbamoyl-amino acids and peptides thereof, as well as methods for preparing them” (Stiftung Deutsches Krebsforshungszentrum, priority 1982, dated 1986) are described below.

Data set [1] can be described thus: Toxicity of the compounds (LD50). It counts as in vivo. The note with it: for LD50 at 2160 h: in vivo, period of observation: 90 days (printed with the cortisone ester). The source says:
Data on the toxicity of the compounds

The next data set relates to rat leukemia L 5222. Description: Therapy test using the model of rat leukemia L 5222. It counts as in vivo. The note with it: for optimal dose: L 5222. From the text:
In the therapy test using the model of rat leukemia L 5222 (Ivankovic, Zeller, Leukamie L 5222 des Rattenstammes BD IX. Eine durch Athylnitrosoharnstoff induzierte monozytar-myeloische, transplantierbare Form fur zytochemische und chemotherapeutische Studien [Leukemia L 5222 of Rats of Stock BD IX. A monocytic-myeloid, transplantable form induced by ethylnitrosourea for cytochemical and chemotherapeutic studies]. Blut [Blood], 28; 288-292, 1974 and Zeller, Ivankovic, Schmahl, Cancer Research, Vol. 35, 1168-1174, 1975), the cortisone conjugate has good activity. At 176 mg/kg, the total median (replicated experiment!) at 65 days was 3 cured animals out of 6, while with CNU alanine in an equimolar dose with cortisone no cures were attained, with a median survival time of 20 days.

Another data set deals with estrogen receptor (Homo sapiens, UniProt P03372). Description: biochemical. To be noted: for affinity relative to estradiol (100%): parameter of 50% bonding inhibition of 3H-tagged estradiol. From the text:
The estrogen-linked compounds were subjected to an estrogen receptor test (Lebercytosol) (Kranzfelder, Schneider, von Angerer, Schoneberger, J. Cancer Research Chim. Oncol. 97, 167-186 (1980)).

Sequence of estrogen receptor (P03372 whole entry): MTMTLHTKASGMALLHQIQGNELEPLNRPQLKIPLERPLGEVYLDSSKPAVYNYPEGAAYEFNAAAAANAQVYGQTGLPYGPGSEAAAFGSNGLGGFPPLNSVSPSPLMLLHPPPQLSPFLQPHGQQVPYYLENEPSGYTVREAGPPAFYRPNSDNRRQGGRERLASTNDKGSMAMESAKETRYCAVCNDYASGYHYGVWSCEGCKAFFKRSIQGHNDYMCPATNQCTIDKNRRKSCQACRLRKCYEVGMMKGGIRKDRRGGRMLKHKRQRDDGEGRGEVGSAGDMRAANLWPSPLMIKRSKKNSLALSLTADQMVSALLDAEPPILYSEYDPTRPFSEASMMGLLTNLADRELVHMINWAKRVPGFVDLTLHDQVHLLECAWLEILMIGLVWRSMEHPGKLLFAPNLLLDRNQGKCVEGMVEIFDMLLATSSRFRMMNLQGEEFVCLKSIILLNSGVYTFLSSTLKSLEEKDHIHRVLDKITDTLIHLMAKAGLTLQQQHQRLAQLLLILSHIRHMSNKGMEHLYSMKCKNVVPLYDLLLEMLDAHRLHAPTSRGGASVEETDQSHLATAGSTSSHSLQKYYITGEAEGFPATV

By LD50 is commonly meant the dose expected to kill half of the subjects tested. Low values mean a more toxic substance, high ones a less toxic substance. In data set [1], `C[C@H](NC(=O)N(CCCl)N=O)C(=O)O` [CNU alanine, reference compound] returned an LD50 at 2160 h of 40 to 50 mg/kg. For the same compound, in the data set with rat leukemia L 5222 (equimolar dose with cortisone), the cures entry is listed as “no cures” and the median survival time turned out to be 20 days.
Consider `CC(NC(=O)N(CCCl)N=O)C(=O)OCC(=O)C1(O)CCC2C3CCC4=CC(=O)CCC4(C)C3C(=O)CC21C` [N-(2-chloroethyl)-N-nitroso-carbamoyl-L-alanine-cortisone-21-ester], for which the LD50 at 2160 h in data set [1] is 220 to 280 mg/kg. For the same compound, the “reduction in toxicity by linking CNU alanine with cortisone” value in data set [1] (relative to CNU alanine) is “sharp reduction in toxicity (by approximately threefold)”. Further, in the data set on rat leukemia L 5222 (176 mg/kg), the cured animals is recorded as 3 cured animals out of 6. Besides, the “total median (survival)” value in the data set on rat leukemia L 5222 (176 mg/kg, replicated experiment) is 65 days. Further, the “activity in therapy test” value in the data set on rat leukemia L 5222 (rat leukemia L 5222) is “good activity”.
The term IC50 denotes the concentration that inhibits the measured activity by half. High values mean weaker potency, low ones greater potency. Consider `C[C@H](NC(=O)N(CCCl)N=O)C(=O)Oc1ccc2c(c1)CC[C@@H]1[C@@H]2CC[C@]2(C)[C@@H](O)CC[C@@H]12` [N-(2-chloroethyl)-N-nitroso-carbamoyl-L-alanine-estradiol-3-ester], for which the optimal dose with rat leukemia L 5222 stood at 279 mg/kg. In the data set on rat leukemia L 5222 (optimal dose 279 mg/kg), the cures amounted to 2 cures and the median survival time was 49 days. At estrogen receptor, it took 50 nM to reach half-maximal inhibition (IC50) and the “affinity relative to estradiol (100%)” value is reported as 16%.
In the data set on rat leukemia L 5222, `C[C@H](NC(=O)N(CCCl)N=O)C(=O)Oc1ccc2c(c1)CC[C@@H]1[C@@H]2CC[C@]2(C)C(=O)CC[C@@H]12` [N-(2-chloroethyl)-N-nitroso-carbamoyl-L-alanine-estrone-ester] registered an optimal dose of 351 mg/kg. In addition, the “toxicity measured in tumor-bearing animals” value with rat leukemia L 5222 (compared with the cortisone derivative) was “even lower than with the cortisone derivative”. Also, the “total median (survival)” value in the data set on rat leukemia L 5222 (optimal dose 351 mg/kg) amounted to 43 days. Moreover, on estrogen receptor, half-maximal inhibition (IC50) was put at 190 nM and the “affinity relative to estradiol (100%)” value is on record as 4%.
